Data reported in BigSolDB 2.1.

COc1ccc2c3c1O[C@H]1[C@@H](O)C=C[C@H]4[C@@H](C2)N(C)CC[C@@]341.O=P(O)(O)O
solubility (mole fraction)
Settings	293.2 K	298.2 K	303.2 K	308.2 K	313.2 K
in NMP	0.00206	0.00212	0.00239	0.00249	0.00259
in isopropanol	1.96e-05	2.52e-05	2.99e-05	3.6e-05	3.99e-05
